{"source": "paper PMC3611663", "about": "(American heart journal, 2011)", "key": {"[1]": {"type": "in vivo, human"}, "[2]": {"system": "GP IIb/IIIa receptor", "conditions": "PRIDE study; cited from earlier work"}}, "note": "Read-outs that look alike come from different tables or passages of the source. Bridge positions count the residues as written; N and C are the ends. Square brackets hold non-standard residues; d marks the D form. Peptide text beside a SMILES is read from it. hArg = N=C(N)NCCCC[C@H](N)C(=O)O; Mpa = O=C(O)CCS"}
{"molecule": "N=C(N)NCCCC[C@@H]1NC(=O)CCSSC[C@@H](C(N)=O)NC(=O)[C@@H]2CCCN2C(=O)[C@H](Cc2c[nH]c3ccccc23)NC(=O)[C@H](CC(=O)O)NC(=O)CNC1=O", "note": "[Eptifibatide] ([Mpa][hArg]GDWPC-NH2; disulfide 1-7 (inferred); C-terminus assumed)", "values": [{"measurement": "Slope of plasma concentration versus body weight (ANCOVA regression)", "setting": "[1]; ABW dosing", "value": 20.6}, {"measurement": "Patients with plasma Eptifibatide >1600 ng/mL", "setting": "[1]; ABW-based dosing (N=22)", "value": "14 (64) no. (%)"}, {"measurement": "Patients with plasma Eptifibatide ≤1600 ng/mL", "setting": "[1]; ABW-based dosing (N=22)", "value": "8 (36) no. (%)"}, {"measurement": "Slope of plasma concentration versus body weight (ANCOVA regression)", "setting": "[1]; IBW dosing", "value": 6.9}, {"measurement": "Patients with plasma Eptifibatide >1600 ng/mL", "setting": "[1]; IBW-based dosing (N=20)", "value": "2 (10) no. (%)"}, {"measurement": "Patients with plasma Eptifibatide ≤1600 ng/mL", "setting": "[1]; IBW-based dosing (N=20)", "value": "18 (90) no. (%)"}, {"measurement": "Slope of plasma concentration versus body weight (ANCOVA regression)", "setting": "[1]; standard dosing", "value": "−6.4"}, {"measurement": "Patients with plasma Eptifibatide >1600 ng/mL", "setting": "[1]; standard dosing (N=19)", "value": "10 (53) no. (%)"}, {"measurement": "Patients with plasma Eptifibatide ≤1600 ng/mL", "setting": "[1]; standard dosing (N=19)", "value": "9 (47) no. (%)"}, {"measurement": "Plasma concentration necessary to achieve >80% occupancy of the GP IIb/IIIa receptor", "setting": "[2]", "value": "approximately 1600 ng/mL"}]}
